Measured values taken from patent US12622917B2, “High-activity Wnt pathway inhibitor compound” (ADLAI NORTYE BIOPHARMA CO., LTD., priority 2020, dated 2026).

Experiments:
Colo205 = assay: Proliferation inhibition, Wnt mutant cell line Colo205; assay type: cell-based; settings: Homo sapiens, COLO 205; Colo205, Wnt pathway-dependent, 96 hours; read-out: Antiproliferative IC50 Colo205
In short: (§1)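 Read-out is a Promega cell viability signal that rises with proliferation, taken after 96 hours of compound treatment. Compound was dosed as a 3-fold dilution series up to 20 uM final, one day after plating 1000 log-phase cells per well; IC50 is calculated against DMSO and no-cell controls.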

DU4475 = assay: Proliferation inhibition, Wnt mutant cell line DU4475; assay type: cell-based; settings: Homo sapiens, DU-4475; DU4475, Wnt pathway-dependent, 96 hours; read-out: Antiproliferative IC50 DU4475
From the text: The cell lines used in the experiment are Colo205 and DU4475 cell lines whose Wnt pathway is continuously activated and whose proliferation is Wnt pathway-dependent; while the BELA and RKO cell lines, whose Wnt pathway is not activated under normal circumstances and the proliferation is independent of Wnt pathway, as control cell lines. It is Judged that the inhibitory effect of the compound of the present invention on Wnt-dependent proliferation is not caused by other non-specific toxicity.
Treat the Colo205, Du4475, HELA and RKO cell lines cultured in their respective mediums in the logarithmic growth phase, collect the cells and prepare a uniform cell suspension of known concentration, and then add it to the 96-well cell culture plate Cell suspension, so that each well contains 1000 cells. Put it into a 5% CO2 incubator and incubate at 37° C. for 20-24 h. On the second day, the fully dissolved, 3-fold serially diluted compound was added to each cell culture well, so that the final maximum concentration in the cell culture well was 20 uM, and the culture was continued for 96 hours. In this test, Promega's cell viability detection test is used for detection. The more the cells proliferate, the stronger the final signal intensity will be. The detection instrument is SpectraMax, full wavelength mode. The wells only added with DMSO were used as positive control wells, and the wells that were not inoculated with cells were used as negative control wells. […] The IC50 value of cell proliferation inhibition was used to evaluate the inhibitory effect of the compound on the Wnt pathway and the toxic effect on normal cells (Table 2).

[1] = test system: Colo205-LUC-TCF/LEF M1 reporter cell line (Wnt pathway); assay: Colo205-LUC-TCF/LEF M1 reporter gene (luciferase) inhibition; assay type: cell-based; settings: 4 hours incubation, luciferase readout
In short: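 Luminescent readout of TCF/LEF-regulated luciferase after a 4 h, 37° C compound exposure in a stable Colo205 reporter clone (10,000 cells/well). Serial 3-fold dilutions started at 20 uM; IC50 derived using DMSO-treated cells and no-cell wells as controls.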

HepG2 = assay: Proliferation inhibition, HepG2 cell line; assay type: cell-based; settings: Homo sapiens; HepG2 cells, 96 hours culture, cell viability detection; read-out: Antiproliferative IC50 HepG2
From the text: (§2) The cell lines used in the test are NCI-H929 and HepG2 cell lines whose Wnt pathway is continuously activated and whose proliferation is Wnt pathway-dependent; the inhibitory effect of the compound of the present invention on Wnt-dependent proliferation is judged.
(§3) Treat the NCI-H929 and HepG2 cell lines cultured in their respective mediums in the logarithmic growth phase, collect the cells and prepare a uniform cell suspension of known concentration, and then add the cell suspension to the 96-well cell culture plate solution so that each well contains 4000 cells. Put it into a […] incubator and incubate at 37° C. for 20-24 h. On the second day, the fully dissolved, 3-fold serially diluted compound was added to each cell culture well, so that the final maximum concentration in the cell culture well was 20 uM, and the culture was continued for 96 hours. In this test, Promega's cell viability detection test is used for detection. The more the cells proliferate, the stronger the final signal intensity will be. The detection instrument is SpectraMax, full wavelength mode. The wells only added with DMSO were used as positive control wells, and the wells that were not inoculated with cells were used as negative control wells. […] The IC50 value of cell proliferation inhibition was used to evaluate the inhibitory effect of the compound on the Wnt pathway and the toxic effect on normal cells (Table 3).

RKO = assay: Proliferation inhibition, non-Wnt mutant control cell line RKO; assay type: cell-based; settings: Homo sapiens, Wnt-independent control cell line, 96 hours, read-out: Antiproliferative IC50 RKO
In short: as §1

NCI-H929 = assay: Proliferation inhibition, NCI-H929 cell line; assay type: cell-based, human; settings: Homo sapiens; NCI-H929 cells, 96 hours culture, cell viability detection; read-out: Antiproliferative IC50 NCI-H929
From the text: as §2, §3

Row | SMILES | IC50 (Colo205) | IC50 [1] | IC50 (HepG2) | IC50 (NCI-H929) | IC50 (DU4475) | IC50 (RKO)
1 | CC[C@H]1C(=O)N2CCCc3nc(NCc4ccc(Cn5ccc(C(F)(F)F)n5)nc4)nc(c32)N1C [146 (W273)] | 0.031 µM | 0.034 µM | 0.081 µM | 0.087 µM | 0.018 µM | > 10 µM
2 | C[C@@H](F)[C@H]1C(=O)N2CCCc3nc(NCc4ccc(Oc5ccc(C(F)(F)F)nc5)nc4)nc(c32)N1C [149 (W285)] | 0.015 µM | 0.016 µM | 0.011 µM | 0.041 µM | 0.0029 µM | > 10 µM
3 | CN1c2nc(NCc3ccc(Oc4cnc(C(F)(F)F)nc4)nc3)nc3c2N(CCC3)C(=O)[C@@H]1CF [150 (W301)] | 0.024 µM | 0.025 µM | 0.019 µM | 0.062 µM | 0.012 µM | > 10 µM
4 | CC[C@H]1C(=O)N2CCCc3nc(NCc4ccc(Oc5cnc(C(F)(F)F)nc5)nc4)nc(c32)N1C [161 (W269)] | 0.0046 µM | 0.009 µM | 0.016 µM | 0.022 µM | < 0.0005 µM | > 10 µM
5 | [2H]C([2H])([2H])N1c2nc(NCc3ccc(Oc4cnc(C(F)(F)F)nc4)nc3)nc3c2N(CCC3)C(=O)[C@@H]1CC [162 (W270)] | 0.0049 µM | 0.011 µM | 0.016 µM | 0.022 µM | < 0.0005 µM | > 10 µM
6 | [2H]C([2H])([2H])N1c2nc(NCc3ccc(Oc4ccc(C(F)(F)F)nc4)nc3)nc3c2N(CCC3)C(=O)[C@@H]1CC(F)F [163 (W325)] | 0.005 µM | 0.016 µM | 0.007 µM | 0.031 µM | 0.0047 µM | > 10 µM
7 | [2H]C([2H])([2H])N1c2nc(NCc3ccc(Oc4cnc(C(F)(F)F)nc4)nc3)nc3c2N(CCC3)C(=O)[C@@H]1CC(F)F [164 (W326)] | 0.005 µM | 0.026 µM | 0.0075 µM | 0.026 µM | 0.005 µM | > 10 µM
8 | [2H]C([2H])([2H])N1c2nc(NCc3ccc(Oc4cnc(C(F)(F)F)nc4)nc3)nc3c2N(CCC3)C(=O)[C@@H]1C1CC1 [165 (W286)] | 0.012 µM | 0.014 µM | 0.011 µM | 0.031 µM | 0.0006 µM | > 10 µM
9 | CN1c2nc(NCc3ccc(Oc4cnc(C(F)(F)F)nc4)nc3)nc3c2N(CCC3)C(=O)[C@@H]1c1ccccc1 [172 (W305)] | 0.0174 µM | 0.02 µM | 0.026 µM | 0.089 µM | 0.0058 µM | > 10 µM

The next lines start with results.

Row | IC50 (Colo205) | IC50 [1] | IC50 (HepG2) | IC50 (NCI-H929) | SMILES | IC50 (DU4475) | IC50 (RKO)
10 | 0.0085 µM | 0.005 µM | 0.016 µM | 0.083 µM | CCN1c2nc(NCc3ccc(Oc4ccc(C(F)(F)F)nc4)nc3)nc3c2N(CCC3)C(=O)[C@@H]1C(C)C [118 (W279), (S)-4-ethyl-5-isopropyl-2-(((6-((6-(trifluoromethyl)pyridin-3-yl)oxo)pyridin-3-yl)methyl)amino)-4,5,9,10-tetrahydro-6H,8H-pyrido[3,2,1-de]pteridin-6-one] | 0.0065 µM | > 10 µM
11 | 0.0075 µM | 0.007 µM | 0.0054 µM | 0.028 µM | CC[C@H]1C(=O)N2CCCc3nc(NCc4ccc(Oc5ccc(C(F)(F)F)nc5)nc4)nc(c32)N1C [119 (W255), (S)-5-ethyl-4-methyl-2-(((6-((6-(trifluoromethyl)pyridin-3-yl)oxo)pyridin-3-yl)methyl)amino)-4,5,9,10-tetrahydro-6H,8H-pyrido[3,2,1-de]pteridin-6-one] | 0.0023 µM | > 10 µM
12 | 0.0078 µM | 0.015 µM | 0.018 µM | 0.055 µM | CN1c2nc(NCc3ccc(Oc4ccc(C(F)(F)F)nc4)nc3)nc3c2N(CCC3)C(=O)[C@@H]1C1CC1 [120 (W265)] | 0.0005 µM | > 10 µM
13 | 0.0091 µM | 0.01 µM | 0.0027 µM | 0.039 µM | C[C@H](F)[C@H]1C(=O)N2CCCc3nc(NCc4ccc(Oc5ccc(C(F)(F)F)nc5)nc4)nc(c32)N1C [126 (W308), (R)-5-((S)-1-fluoroethyl)-4-methyl-2-(((6-((6-(trifluoromethyl)pyridin-3-yl)oxo)pyridine-3-yl)methyl)amino)-4,5,9,10-tetrahydro-6H,8H-pyrido[3,2,1-de]pteridin-6-one] | < 0.0005 µM | > 10 µM
14 | 0.021 µM | 0.02 µM | 0.042 µM | 0.075 µM | CN1c2nc(NCc3ccc(Oc4ccc(C(F)(F)F)nc4)nc3)nc3c2N(CCC3)C(=O)[C@@H]1c1ccccc1 [127 (W280), (S)-4-methyl-5-phenyl-2-(((6-((6-(trifluoromethyl)pyridin-3-yl)oxo)pyridin-3-yl)methyl)amino)-4,5,9,10-tetrahydro-6H,8H-pyrido[3,2,1-de]pteridin-6-one] | 0.042 µM | > 10 µM
15 | 0.0186 µM | 0.019 µM | 0.027 µM | 0.078 µM | C[C@H]1C(=O)N2CCCc3nc(NCc4ccc(Oc5cc(C(F)(F)F)nn5C)nc4)nc(c32)N1C [128 (W263), (S)-4,5-dimethyl-2-(((6-((1-methyl-3-(trifluoromethyl)-1H-pyrazol-5-yl)oxo)pyridine-3-yl)methyl)amino)-4,5,9,10-tetrahydro-6H,8H-pyrido[3,2,1-de]pteridin-6-one] | 0.0041 µM | > 10 µM
16 | 0.011 µM | 0.05 µM | 0.0098 µM | 0.026 µM | CN1c2nc(NCc3ccc(Oc4cnc(C(F)(F)F)nc4)nc3)nc3c2N(CCC3)C(=O)[C@@H]1C(C)(C)F [151 (W332)] | 0.013 µM | > 10 µM
17 | 0.021 µM | 0.015 µM | 0.019 µM | 0.037 µM | CCN1c2nc(NCc3ccc(Oc4cc(C(F)(F)F)nn4C)nc3)nc3c2N(CCC3)C(=O)[C@@H]1C [153 (W293)] | 0.0039 µM | > 10 µM
18 | 0.016 µM | 0.023 µM | 0.021 µM | 0.031 µM | CCN1c2nc(NCc3ccc(Oc4cnc(C(F)(F)F)nc4)nc3)nc3c2N(CCC3)C(=O)[C@@H]1C1CC1 [166 (W287)] | 0.0048 µM | 4.82 µM
19 | 0.006 µM | 0.012 µM | 0.0068 µM | 0.028 µM | CN1c2nc(NCc3ccc(Oc4cnc(C(F)(F)F)nc4)nc3)nc3c2N(CCC3)C(=O)[C@@H]1C1CC1 [167 (W289)] | 0.0006 µM | > 10 µM
20 | 0.029 µM | 0.026 µM | 0.035 µM | 0.068 µM | CCN1c2nc(NCc3ccc(Oc4cnc(C(F)(F)F)nc4)nc3)nc3c2N(CCC3)C(=O)[C@@H]1C [168 (W298)] | 0.011 µM | > 10 µM
21 | 0.0056 µM | 0.02 µM | 0.027 µM | 0.04 µM | CN1c2nc(NCc3ccc(Oc4ccc(C(F)(F)F)nc4)nc3)nc3c2N(CCC3)C(=O)C1(C)C [176 (W296)] | 0.0038 µM | > 10 µM
22 | 0.0161 µM | 0.021 µM | 0.025 µM | 0.056 µM | CN1c2nc(NCc3ccc(Oc4cnc(C(F)(F)F)nc4)nc3)nc3c2N(CCC3)C(=O)C1(C)C [177 (W297)] | 0.0012 µM | > 10 µM
